# Measured values from patent publication US20210395745A1, “RNAI AGENTS FOR HEPATITIS B VIRUS INFECTION” (Arrowhead Pharmaceuticals, Inc., priority 2019, published 2021).
# Columns and labels:
# Hepatitis B Virus (HBV) [1] = test: Serum HBV DNA levels in X Region Knockout model mice; conditions: Example 14, single SC, 2 mg/kg AD04872 with 0.7 to 2 mg/kg AD05070, days 8-22
# Hepatitis B Virus (HBV) [2] = test: Serum HBsAg levels (ELISA) in pHBV model mice; assay type: in vivo, NOD-SCID mice; conditions: for Average HBsAg levels normalized to pre-treatment and PBS control: 4.0 mg/kg sc day 1, Day 8
# From the text: Six to eight-week-old female NOD.CB17-Prkdscid/NcrCrl (NOD-SCID) mice were transiently transfected in vivo with MC-HBV1.3 by hydrodynamic tail vein injection (Yang P L et al. “Hydrodynamic injection of viral DNA: a mouse model of acute hepatitis B virus infection,” PNAS USA 2002 Vol. 99: p. 13825-13830), administered 30 to 45 days prior to administration of an HBV RNAi agent or control. MC-HBV1.3 is a plasmid-derived minicircle that contains the same terminally redundant human hepatitis B virus sequence HBV1.3 as in plasmid pHBV1.3 and in the HBV1.3.32 transgenic mice (GenBank accession #V01460) (Guidotti L G et al., “High-level hepatitis B virus replication in transgenic mice,” J Virol 1995 Vol. 69, p 6158-6169.). 5 or 10 μg MC-HBV1.3 in Ringer's Solution in a total volume of 10% of the animal's body weight was injected into mice via tail vein to create pHBV model of chronic HBV infection. The solution was injected through a 27-gauge needle in 5-7 seconds as previously described (Zhang G et al., “High levels of foreign gene expression in hepatocytes after tail vein injection of naked plasmid DNA.” Human Gene Therapy 1999 Vol. 10, p 1735-1737.). At pre-dose (either day 1 pre-dose, day −1, or day −2), Hepatitis B surface antigen (HBsAg) HBsAg expression levels in serum were measured by ELISA and the mice were grouped according to average HBsAg expression levels.
# HBV expression levels were normalized to pre-administration expression levels and to control mice injected with phosphate buffered saline (“PBS”).
# Mice were anesthetized with 2-3% isoflurane and blood samples were collected from the submandibular area into serum separation tubes (Sarstedt AG & Co., Nümbrecht, Germany). Blood was allowed to coagulate at ambient temperature for 20 min. The tubes were centrifuged at 8,000×g for 3 min to separate the serum and stored at 4° C.
# Serum was collected and diluted 10 to 8000-fold in PBS containing 5% nonfat dry milk. […] HBsAg levels were determined with a GS HBsAg EIA 3.0 kit (Bio-Rad Laboratories, Inc., Redmond, Wash.) as described by the manufacturer. […]
# Hepatitis B Virus (HBV) [3] = test: Serum HBsAg levels in X Region Knockout model mice; assay type: in vivo; conditions: Example 14, single SC, 2 mg/kg AD04872 alone or with 0.7 to 2 mg/kg AD05070, days 8-29
# Description: Serum was collected and diluted 10 to 8000-fold in PBS containing 5% nonfat dry milk. Secondary HBsAg standards diluted in the nonfat milk solution were prepared from serum of ICR mice (Harlan Sprague Dawley) that had been transfected with 10 μg HBsAg-expressing plasmid pRc/CMV-HBs (Aldevron, Fargo, N. Dak.). HBsAg levels were determined with a GS HBsAg EIA 3.0 kit (Bio-Rad Laboratories, Inc., Redmond, Wash.) as described by the manufacturer. Recombinant HBsAg protein, ayw subtype, also diluted in nonfat milk in PBS, was used as a primary standard (Aldevron).
# HBsAg expression for each animal was normalized to the control group of mice injected with PBS in order to account for the non-treatment related decline in expression of MC-HBV1.3. First, the HBsAg level for each animal at a time point was divided by the pre-treatment level of expression in that animal in order to determine the ratio of expression “normalized to pre-treatment”. Expression at a specific time point was then normalized to the control group by dividing the “normalized to pre-treatment” ratio for an individual animal by the average “normalized to pre-treatment” ratio of all mice in the normal PBS control group.
substance,measurement,setting,value
"AD05070: HBV RNAi agent duplex: antisense AM06606-AS, sense AM06605-SS (antisense UACCAAUUUAUGCCUACAGCG; sense CGCUGUAGGCAUAAAUUGGUA; chemically modified, pattern not given here)",serum HBV DNA,Hepatitis B Virus (HBV) [1],did not diminish the activity of the 2 mg/kg HBV RNAi agent AD04872
same,Average HBsAg levels normalized to pre-treatment and PBS control,Hepatitis B Virus (HBV) [2]; Ex 8 Group 6A,0.058 ± 0.035
same,Average HBsAg levels normalized to pre-treatment and PBS control,Hepatitis B Virus (HBV) [2]; Ex 8 Group 6B,0.117 ± 0.058
same,HBsAg compared to PBS control,"Hepatitis B Virus (HBV) [2]; Example 15, pHBV mice, single SC injection, doses per Table 38, days 8-50",provided significant knockdown of HBsAg compared to PBS control across each of the time points measured
same,knockdown of HBsAg compared to PBS control,Hepatitis B Virus (HBV) [3],did not diminish the activity of the 2 mg/kg HBV RNAi agent AD04872
